Structures can show the parent of a compound that is named as a salt.
Columns and labels:
[1] = molecular target: T1, IKKbeta (Homo sapiens, UniProt O14920); assay: IKK-beta Kinase Assay; format: biochemical; details: purified IKKβ 4 nM, 20 μM IKB peptide, 10 μM ATP, 90 minutes; absolute IC50; read-out: Enzyme Inhibition IC50
T1 sequence (O14920 1-756): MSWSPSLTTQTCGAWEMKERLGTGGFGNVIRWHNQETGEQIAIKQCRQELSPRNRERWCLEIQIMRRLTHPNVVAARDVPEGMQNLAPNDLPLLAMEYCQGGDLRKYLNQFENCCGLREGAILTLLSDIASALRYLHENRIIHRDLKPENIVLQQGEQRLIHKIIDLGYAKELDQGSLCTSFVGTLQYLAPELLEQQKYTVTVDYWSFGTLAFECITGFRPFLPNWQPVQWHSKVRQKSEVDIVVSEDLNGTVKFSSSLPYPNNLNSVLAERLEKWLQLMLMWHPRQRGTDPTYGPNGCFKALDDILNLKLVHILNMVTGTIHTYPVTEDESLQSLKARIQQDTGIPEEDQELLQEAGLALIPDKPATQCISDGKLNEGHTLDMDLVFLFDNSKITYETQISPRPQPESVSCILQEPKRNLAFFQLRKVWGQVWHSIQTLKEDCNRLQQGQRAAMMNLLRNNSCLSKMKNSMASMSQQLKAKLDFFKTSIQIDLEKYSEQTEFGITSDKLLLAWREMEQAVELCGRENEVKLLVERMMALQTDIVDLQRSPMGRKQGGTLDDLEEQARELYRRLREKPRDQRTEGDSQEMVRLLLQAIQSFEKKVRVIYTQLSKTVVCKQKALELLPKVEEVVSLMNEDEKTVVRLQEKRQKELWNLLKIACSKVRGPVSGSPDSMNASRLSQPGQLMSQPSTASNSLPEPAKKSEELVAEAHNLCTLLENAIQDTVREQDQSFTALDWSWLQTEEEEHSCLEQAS
Procedure: The kinase activity of purified IKKβ is measured in vitro using a synthetic IKB peptide fragment (-[…]-) derived from IKB protein as a substrate. All reactions (30 μL) are started by the addition of the IKKb enzyme (final concentration: 4 nM) and then incubated at room temperature for 90 minutes in the reaction mix containing 20 μM IKB peptide, 10 μM ATP, 5 mM MgCl2, 50 mM Tris-HCl pH 7.5, 3 mM DTT, 4% DMSO, 1 mM Sodium Orthovandate, 0.5 mM β-glycerophosphate, 0.01% Triton X-100, 4 μCi γ-^33p-ATP/reaction. Reactions are terminated by addition of 30 μL 10% phosphoric acid, and the terminated reaction mix is filtered through a phosphocellulose membrane to remove unused γ-^33P-ATP. After four washes with 0.5% phosphoric acid, radio-labeled products bound to the filter are counted using a microbeta counter. All exemplified compounds are initially tested at 10 concentrations (20 μM down to 1 nM) using a 1:3 serial dilution scheme on the Beckman Tecan serial diluter. Calculation is done using a software package from IDBS (Activity Base) where an absolute IC50 value (non-linear regression) is calculated. Example 20 is specifically detailed below.

[2] = test system: HCT116 cells; assay: Cell Viability Test, HCT116; format: cell-based; details: HCT-116; HCT116 (human colon cancer cell line); 1 ng/mL TNFα, 0.5% DMSO, 48 hours; read-out: Cell Viability Inhibition IC50
Procedure: (§1) RPMI 8226 cells (ATCC #CCL-155; human multiple myeloma cell line) are grown in RPMI 1640 medium (Gibco #11875-093) supplemented with 10% FBS (fetal bovine serum, Gibco #10082-147), 10 mM HEPES (Gibco #15630-080), 1 mM sodium pyruvate (Gibco #11360-070), and 4.5 mg/mL glucose. HCT116 cells (ATCC #CCL-247; human colon cancer cell line) are grown in McCoy's 5A modified medium (Gibco #16600-082) supplemented with 10% FBS (Gibco #10082-147). H460 cells (ATCC #HTB-177; human non-small cell lung cancer line) are grown in RPMI 1640 (Gibco #11875-093) supplemented with 10% FBS (Gibco #10082-147). […]
(§2) For compound testing, various cancer cells are seeded at 5,000 cells/well in 100 μl corresponding media specified above for each cell line in 96-well plates one day prior to treatment. […] Cell death in each well is determined by the addition of 15 μL of the One Solution Reagent (The CellTiter 96® AQueous One Solution Reagent, Promega #G3580). After 1-2 hours of incubation at 37° C., optical densities at 490 nm are measured with a microplate reader (Molecular Devices SpectraMax). Inhibition of cell viability is determined by comparison to the control cells treated in the absence of a test compound.

[3] = test system: H460 cells; assay: Cell Viability Test, H460; format: cell-based; details: NCI-H460; H460 (human non-small cell lung cancer line); 1 ng/mL TNFα, 0.5% DMSO, 0.5 μg/mL cycloheximide, 48 hours; read-out: Cell Viability Inhibition IC50
Procedure: as §1, §2

[4] = test system: U87MG cells; assay: Cell Viability Test, U87MG; format: cell-based; details: U-87 MG; U87MG (human glioblastoma cell line); 1 ng/mL TNFα, 0.5% DMSO, 48 hours; read-out: Cell Viability Inhibition IC50
Procedure: as §1, §2

[5] = test system: RPMI 8226 cells; assay: Cell Viability Test, RPMI-8226; format: cell-based; details: RPMI-8226 (human multiple myeloma cell line); 1 ng/mL TNFα, 0.5% DMSO, 48 hours; read-out: Cell Viability Inhibition IC50
Procedure: as §1, §2

[6] = test system: A2780 cells; assay: Cell Viability Test, A2780; format: cell-based; details: A2780 (human ovarian carcinoma); 1 ng/mL TNFα, 0.5% DMSO, 48 hours; read-out: Cell Viability Inhibition IC50
Procedure: as §1, §2

`CN1CCN(CCCNc2ncc(Cl)c(-c3cc4c(C(=O)NC5CC5)cccc4s3)n2)CC1` [Example 20, 2-{5-Chloro-2-[3-(4-methylpiperazin-1-yl)-propylamino]-pyrimidin-4-yl}-benzo[b]thiophene-4-carboxylic acid cyclopropylamide tri-hydrochloride] was tested, and the IC50 [1] was 0.046 µM, the IC50 [2] was 19.2 µM and the IC50 [3] was 9 µM. The IC50 [4] was 22.3 µM, the IC50 [5] was 2.2 µM and the IC50 [6] was 11.7 µM.

From patent US7547691B2, “[4-(Benzo[B]thiophen-2-yl) Pyrimidin-2-yl]-amine derivatives as IKK-beta inhibitors for the treatment of cancer and inflammatory diseases” (Eli Lilly and Company, priority 2005, dated 2009)
